Here are results for 5 compounds from patent US8008077B2, “Photochemical internalization for delivery of molecules into the cytosol” (priority 2000, dated 2011).

Data set [1] has as its system THX cells. The experiment in a line: Light-induced (PCI) transfection of THX cells with pEGFP-N1/polylysine complex, GFP expression by flow cytometry. To be noted: for "light before" approach compared with "light after" approach, poly-L-lysine mediated transfection: photosensitiser 2 μg/ml TPPS2a or 75 μg/ml TPPS4, pEGFP-N1/PLL complex 4 h. Format: cell-based, human. As for the experimental part: (§1) The human melanoma cell line THX was established from tumour tissue obtained from a patient treated for metastatic malignant melanoma at the Norwegian Radium Hospital (Aamdal et al., 1986., Int. J. Cancer, 37, 579), and grown in RMPI 1640 (Gibco-BRL) supplemented with 10% FCS (Gibco-BRL) and 2 mM glutamine (Gibco-BRL). The human colon carcinoma cell line HCT 116 was obtained from American Type Culture Collection (ATCC no. CCL-247) and grown in RPMI 1640 medium supplemented with 10% foetal calf serum, 100 U/ml penicillin, […] streptomycin and 2 mM glutamine (all Gibco BRL, Paisley, UK).
Two different light sources were used for treatment of the cells, both consisting of a bank of 4 fluorescent tubes. […]
(§2) The cells were trypsinized, centrifuged, resuspended in 400 μl of culture medium and filtered through a 50 μm mesh nylon filter. Then the cells were analyzed by a FACS-Calibur (Becton Dickinson) flow cytometer. […] Fluorescein-fluorescence (for example green Fluorescent protein (GFP)) was measured through a 510-530 nm filter after excitation with an argon laser (200 mW) tuned on 488 nm. AlPcS2a was measured through a 670 nm longpass filter after excitation with a diode laser (50 mW) tuned on 635 nm. […] The data were analysed with CELLQuest Software (Becton Dickinson).
THX cells were treated with 20 μg/ml AlPcS2a for 18 hours, washed and incubated in sensitizer-free medium for 3 hours followed by 1 hour incubation with 5 μg pEGFP-N1/polylysine complex before light exposure for 1, 2, 3 or 4 minutes. […] GFP expression was analysed by flow cytometry 48 hours after light exposure. […]
THX cells were treated with 20 μg/ml AlPcS2a for 18 hours, washed and incubated in sensitizer-free medium for 4 hours before 3 minutes of light treatment. […] GFP expression was analysed by flow cytometry 48 hours after light exposure. […]
For orientation: A flow cytometer gives signals particle by particle.

Data set [2] concerns HCT 116 cells. The experiment in a line: Light-induced (PCI) transfection of HCT 116 cells with pEGFP-N1/polylysine complex, GFP expression by flow cytometry. Format: cell-based, human. The procedure:
as §1
Two different light sources were used for treatment of the cells, both consisting of a bank of 4 fluorescent tubes. Cells treated with TPPS4, TPPS2a, and 3-THPP (Porphyrin Products, Logan, Utah) were exposed to blue light (model 3026; Appl. Photophysics, London, UK) with a light intensity reaching the cells of 1.5 mW/cm^2 while cells treated with AlPcS2a (Porphyrin Products, Logan, Utah) were exposed to red light (Philips TL 20W/09) filtered through a Cinemoid 35 filter with a light intensity reaching the cells of 1.35 mW/cm^2.
[…] The cells were treated with pEGFP-N1 polylysine complex for 4 hours immediately before or after exposure to light. […]
as §2
The cells were treated with pEGFP-N1/polylysine complex for 4 hours immediately before or after exposure to light as indicated on FIG. 2. The expression of GFP was measured by flow cytometry 2 days after the light exposure. […]

The subject of data set [3] is WiDr human adenocarcinoma. The experiment in a line: PCI with gelonin for treatment of tumours in a mouse in vivo model. More on the design: species or system Balb/c (nu/nu) mice. The conditions noted are these: for effect on tumour cure, in words: gelonin alone; for % TUMOUR-FREE MICE 30 DAYS AFTER ILLUMINATION / FRACTION TUMOUR-FREE MICE 30 DAYS AFTER ILLUMINATION: AlPcS2a 10 mg/kg i.p., gelonin 50 μg intratumorally where given. The procedure:
Water and food was given ad libitum. All procedures involving mice were carried out in agreement with the protocols approved by the animal care committee at the Norwegian Radium Hospital, under control by the National Ethical Committee's guidelines on animal welfare. The mice were on average 20-25 g (5-8 weeks old) at the start of the experiments, and we used at least 5 mice per experiment group. The WiDr human adenocarcinoma used in the present study, was propagated by serial transplantation into the Balb/c (nu/nu) mice. The tumours were minced to homogeneity by a scalpel and 20 μl of the solution injected subcutaneously on the right hip of each mouse. The tumour size was measured two or three times per week by measuring two perpendicular diameters. Tumour volume was calculated using the following formula: V=(W^2×L)/2 where W is the width and L the length diameters of the tumours measured. Treatment
A stock solution of AlPcS2a was diluted to 1.25 mg/ml in PBS and injected intraperitoneally to a final concentration of 10 mg/kg when the tumours had reached a volume of approximately 100 mm^3. 48 h after the injection of AlPcS2a the tumours were exposed for 16 min to red light (see below). Immediately after light exposure gelonin (50 μg total amount in a 2 mg/ml solution, i.e. 25 μl) was injected intratumorally. The mice were kept in the dark for 1 week after the injection of AlPcS2a.
The tumours were illuminated with a 150 W halogen lamp (Xenophot HLX64640) filtered with a 580 nm long pass and a 700 nm short pass filter emitting 150 mW/cm^2. The animals were covered with aluminium foil except above the tumour area where a hole in the foil with a diameter 2 mm larger than the tumour diameter had been made. The tumours were exposed to 145 J/cm^2 of light. Tumour volumes were measured two or three times per week as described above. Mice were killed when the tumours reach a diameter of approximately 20 mm. The fraction of tumour-free mice 30 days after illumination was scored (Table 1), and the mean tumour volume in each treatment group was recorded (FIG. 25).

For data set [4], the system named is THX cells. The experiment in a line: Gelonin toxicity after photochemical treatment, protein synthesis by [3H]-leucine incorporation, THX cells. Format: cell-based, human. As for the experimental part:
THX cells were incubated with 20 μg/ml AlPcS2a for 18 hours followed by 4 hours in sensitizer-free medium before exposure to light. The cells were either co-treated with AlPcS2a and 1 μg/ml gelonin, or gelonin (1 μg/ml) was added to the medium immediately after light exposure for 18 hours after which it was removed from the medium as indicated on FIG. 3. Protein synthesis was measured 24 hours after light exposure.
(§3) For the treatment with gelonin 25×10^3 cells per well were seeded out into 24-well plates (Nunc, Denmark). The next day 20 μg/ml AlPcS2a was added, and the cells were incubated for 18 h at 37° C. All the procedures after AlPcS2a addition were carried out in subdued light. For the “light before” strategy, the cells were washed from AlPcS2a and incubated in AlPcS2a-free medium for 4 h. Then the cells were exposed to light (as indicated in the figures) before the treatment with 1 μg/ml gelonin for 18 h. For the “light after” strategy the cells were co-incubated with 20 μg/ml AlPcS2a and 1 μg/ml gelonin for 18 h, and washed before exposure to light as indicated in the figure.
(§4) Non-illuminated cells were treated in a similar way except for illumination. The treated cells were washed once with culture medium and after addition of fresh medium incubated at 37° C. before further analysis. Inhibition of protein synthesis was assayed by [^3H]-leucine incorporation into protein 24 h after light exposure. Illumination was performed from a bench with four light tubes (Philips TL 20W/09) and a long pass filter with a cut off at 550-600 nm. The light intensity reaching the cells was 13.5 W/m^2.

For data set [5], the system named is HCT 116 cells. Put plainly: Gelonin toxicity after photochemical treatment, protein synthesis by [3H]-leucine incorporation, HCT 116 cells. Format: cell-based, human. The conditions noted are these: 1 μg/ml gelonin 18 h. As for the experimental part: as §3, §4
The mark [6] stands for this setting: with light (145 J/cm^2; "light before" gelonin).

Take `Oc1cccc(-c2c3nc(c(-c4cccc(O)c4)c4ccc([nH]4)c(-c4cccc(O)c4)c4nc(c(-c5cccc(O)c5)c5ccc2[nH]5)C=C4)C=C3)c1` [3-THPP]: the “increase in GFP expression with this photosensitizer” value in data set [1] (0.25 μg/ml 3-THPP 18 h, light before 1 h pEGFP-N1/polylysine complex) was “only a minor increase in GFP expression”.

Take poly-D-lysine: the “PCI with the "light before" protocol, poly-D-lysine as transfection agent” value in data set [2] (HCT 116 cells, complex with pEGFP-N1, variable irradiation times) is given as “works well”.

`O=S(=O)(O)c1ccc(-c2c3nc(c(-c4ccc(S(=O)(=O)O)cc4)c4ccc([nH]4)c(-c4ccc(S(=O)(=O)O)cc4)c4nc(c(-c5ccc(S(=O)(=O)O)cc5)c5ccc2[nH]5)C=C4)C=C3)cc1` [TPPS4]: the “"light before" approach compared with "light after" approach, poly-L-lysine mediated transfection” value was “works slightly better” in data set [1]; “works as well as” in data set [2] (75 μg/ml TPPS4, text prints THX cells, heading and FIG. 19 HCT 116 cells).

As for “Gelonin: plant toxin which efficiently inhibits protein synthesis when it is present in the cytosol of cells”, the “effect on tumour cure, in words” value is recorded as “no effect” in data set [3] (with additional light treatment, without AlPcS2a (group 4)) and “no effect” in data set [3] (without light (group 3)). For the same compound, the “% TUMOUR-FREE MICE 30 DAYS AFTER ILLUMINATION” value in data set [3] (setting [6]) and in data set [3] (without light) was 0% each time. In addition, the “FRACTION TUMOUR-FREE MICE 30 DAYS AFTER ILLUMINATION” value in data set [3] (setting [6]) is reported as 0/5; in data set [3] (without light), 0/8. Moreover, the “tumour growth (mean tumour volume)” value in data set [3] (without light) was “grew as fast as in animals given a placebo treatment”. Moreover, the “toxic effect of gelonin in itself without the PCI treatment” value in data set [4] (1 μg/ml gelonin 18 h) and in data set [5] was “no toxic effect” throughout. For the same compound, in data set [4] (1 μg/ml gelonin before or after photochemical treatment (20 μg/ml AlPcS2a + light), 24 h after light), the “inhibition of protein synthesis compared with photochemical treatment in the absence of gelonin” value is listed as “significantly greater inhibition of protein synthesis”. Also, the “"light before" strategy compared with "light after" method, inhibition of protein synthesis” value is “works better” in data set [4] (20 μg/ml AlPcS2a, 1 μg/ml gelonin 18 h) and “works better” in data set [5] (20 μg/ml AlPcS2a). Further, the “inhibition of protein synthesis, "light before" relative to "light after"” value in data set [4] (highest light dose) was “about 3 fold”.

In the case of `O=S(=O)(O)c1ccc(-c2c3nc(c(-c4ccc(S(=O)(=O)O)cc4)c4ccc([nH]4)c(-c4ccccc4)c4nc(c(-c5ccccc5)c5ccc2[nH]5)C=C4)C=C3)cc1` [TPPS2a, Tetraphenylporphine disulfonate], the “"light before" approach compared with "light after" approach, poly-L-lysine mediated transfection” value in data set [1] was “works as well as”; in data set [2] (HCT 116 cells, TPPS2a, pEGFP-N1/PLL complex 4 h) it was “works as well as”.
